Source: patent publication US9140688B2, “Sperm staining and sorting methods” (INGURAN, LLC, priority 2011, dated 2015)
Several values for one entry are separate records, joined by “and”; a condition that tells them apart may be missing. Equal entries are not always repeated. Where two headings read alike, the source gives them in different places.

Key:
[1] = test system: membrane compromised bovine sperm stained with Hoechst 33342; experiment: Dead quenching: dead gate intensity divided by live gate intensity, flow cytometry of stained bovine sperm; type: cell-based; details: Ex 10; Y6 25 μM
Description: FIG. 4 illustrates an example bivariate plot and univariate histogram of the parameters measured during sex selection by a FACS on a flow cytometer. […] Without a dead quenching dye, both populations of sperm would overlap to a large extent, with unpredictable variations in the dead sperm.
The entire ejaculate of sperm was suspended in first staining buffer, specifically a 7.4 pH TALP described in TABLE 1, to a concentration of 160×10^6 sperm per mL (determined on nucleocounter) and divided into three aliquots of about 20 mL into 50 mL Falcon tubes and pre-warmed for 10 minutes at 34° C. The DNA selective fluorescent dye, Hoechst 33342, was added and samples were held at 34° C. for 60 minutes. 3 different Hoechst 33342 Stain Levels were used=12 μL, 14 μL and 16 μL per 2 mL (effective concentrations of 48 μM, 56 μM, 64 μM).
Preparation of the second buffer including the dead quenching dye—A 2 L bag of TALP, described in TABLE 1, was adjusted to pH 5.60 using HCl and then sterile filtered. […] For each of the four dyes tested (R40—red food dye No. 40, Y5—yellow food dye No. 5, Y6—yellow food dye No. 6 and PR—phenol red), an appropriate number of milligrams of each powder was placed in a Erlenmeyer Flask and then an exact amount of TALP pH 5.60 was added to create a […] concentration of the dye. The result was a working TALP stock for each dye with a 100% (125 μM) relative amount of dye 50% relative (62.5 μM) and 20% relative (25 μM) solutions were made by dilution of 100% by TALP pH 5.60.
After this “bulk” staining for 60 minutes, 1 mL aliquots of stained sperm were combined with 1 mL aliquots of the second buffer including the dead quenching dyes. Samples sat for approximately 30 minutes at room temperature before being analyzed on a MoFlo SX (Beckman Coulter, USA) sperm sorting flow cytometer. Event rates were held as close to 13,000 as possible at the point of data acquisition.
The total number of individual treatments was 42 tubes, each containing 2 mL of stained sample. The alignment of the sorter was established using nuclei and confirmed with live sample from the 50% Red 40 series. Once good alignment was established, each tube was placed on the sorter long enough to establish a stabile dead gate population (about 30 seconds) and then a screenshot was taken and saved as a .jpeg image. This approach of rapidly documenting each sample is used to assure the most consistent alignment between all samples. Realignment of sorter will not cause differences in the intensities of live and dead gate populations but will cause differences in split quality.
FIG. 4 illustrates an example histogram. The ratio of dead gate intensity divided by live gate intensity is created by dividing the distance “A” by the distance “B” shown as a percentage. Lower values mean higher levels of quenching. The ratio of peak height divided by valley height is created by dividing the distance “C” by the distance “D”. A value of 1.00 means “no split” while higher values mean “better splits”. […]

[2] = test system: X- and Y-chromosome bearing bovine sperm stained with Hoechst 33342; experiment: Split quality: height of peak divided by height of valley (PV), flow cytometry of stained bovine sperm; type: cell-based; details: for split enhancing effect compared to control, in words / peak to valley ratio, average 8 bulls: Ex 10; for split enhancing effect compared to control, in words: 15, 45, 125 μM, averaged over 8 bulls; for peak to valley ratio, average 8 bulls: Hoechst 64 μM; for PV: Ex 9, Bull 3, Hoechst 60 μM
[3] = cited from earlier work; for (local) maximum absorption wavelength, as believed: phenol red in the red molecular form; for Expected Absorption Maxima: solvent water
[4] = split enhancing dye 15 μM, 30 Min incubation, Y6 25 μM in second buffer
[5] = split enhancing dye 15 μM, 45 Min, Y6 25 μM
[6] = split enhancing dye 15 μM, 60 Min, Y6 25 μM
[7] = split enhancing dye 15 μM, 75 Min, Y6 25 μM
[8] = split enhancing dye 45 μM, 30 Min, Y6 25 μM
[9] = split enhancing dye 45 μM, 45 Min, Y6 25 μM
[10] = split enhancing dye 45 μM, 60 Min, Y6 25 μM
[11] = split enhancing dye 45 μM, 75 Min, Y6 25 μM
[12] = split enhancing dye 125 μM, 30 Min, Y6 25 μM
[13] = split enhancing dye 125 μM, 45 Min, Y6 25 μM
[14] = split enhancing dye 125 μM, 60 Min, Y6 25 μM
[15] = split enhancing dye 125 μM, 75 Min, Y6 25 μM
[16] = shorter-wavelength local maximum

Compound | dead quenching capacity of split enhancing dye in combination with yellow food dye No. 6 (FIG. 8) [1] | split enhancing effect compared to control, in words [2] | peak to valley ratio, average 8 bulls [2, 4] | peak to valley ratio, average 8 bulls [2, 5] | peak to valley ratio, average 8 bulls [2, 6] | peak to valley ratio, average 8 bulls [2, 7] | peak to valley ratio, average 8 bulls [2, 8] | peak to valley ratio, average 8 bulls [2, 9] | peak to valley ratio, average 8 bulls [2, 10] | peak to valley ratio, average 8 bulls [2, 11] | peak to valley ratio, average 8 bulls [2, 12] | peak to valley ratio, average 8 bulls [2, 13] | peak to valley ratio, average 8 bulls [2, 14] | peak to valley ratio, average 8 bulls [2, 15] | Expected Absorption Maxima [3, 16] [nm] | other results
Cc1c(C(=O)O)c(O)cc2c1C(=O)c1c(O)c(C3O[C@H](CO)[C@@H](O)[C@H](O)[C@H]3O)c(O)c(O)c1C2=O (stereo in doubt) [Red 4, carmine] | significant increase in quenching the dead subpopulation | distinct improvements at all concentrations and at all times | 1.09 | 1.44 | 1.79 | 1.91 | 1.18 | 1.50 | 1.76 | 1.94 | 1.13 | 1.45 | 1.81 | 1.95 |  | (local) maximum absorption wavelength, as believed ([3]; listed as red food dye No. 4): 520 nm and 555 nm; Expected Absorption Maxima ([3]; listed as Red 4 (natural), longer-wavelength local maximum): 555 nm; Expected Absorption Maxima ([3]; listed as Red 4 (natural), shorter-wavelength local maximum): 520 nm
CCN(Cc1cccc(S(=O)(=O)[O-])c1)c1ccc(C(=C2C=CC(=[N+](CC)Cc3cccc(S(=O)(=O)[O-])c3)C=C2)c2ccccc2S(=O)(=O)[O-])cc1.[Na+].[Na+] [Blue 1] |  |  |  |  |  |  |  |  |  |  |  |  |  |  | 627 | 
O=C1/C(=C2\Nc3ccc(S(=O)(=O)[O-])cc3C2=O)Nc2ccc(S(=O)(=O)[O-])cc21.[Na+].[Na+] [Blue 2] |  |  |  |  |  |  |  |  |  |  |  |  |  |  | 610 | 
CCN(Cc1cccc(S(=O)(=O)[O-])c1)c1ccc(C(=C2C=CC(=[N+](CC)Cc3cccc(S(=O)(=O)[O-])c3)C=C2)c2ccc(O)cc2S(=O)(=O)[O-])cc1.[Na+].[Na+] [Green 3] |  |  |  |  |  |  |  |  |  |  |  |  |  |  | 625 | 
O=S(=O)([O-])c1ccc2c(N=Nc3ccc(S(=O)(=O)[O-])c4ccccc34)c(O)c(S(=O)(=O)[O-])cc2c1.[Na+].[Na+].[Na+] [Red 2] | strong dead quenching capacity | did not provide a split enhancing, or noise reducing effect | 1.06 | 1.15 | 1.54 | 1.73 | 1.00 | 1.05 | 1.12 | 1.38 | 1.00 | 1.00 | 1.00 | 1.00 | 520 | 
O=C(O)c1ccccc1-c1c2cc(I)c(=O)c(I)c-2oc2c(I)c(O)c(I)cc12 [Red 3, 2-(6-Hydroxy-2,4,5,7-tetraiodo-3-oxo-xanthen-9-yl)benzoic acid] |  |  | 1.05 | 1.43 | 1.78 | 1.79 | 1.05 | 1.36 | 1.58 | 1.60 | 1.00 | 1.02 | 1.10 | 1.32 | 530 | PV ([2]; R3 25 μM with Y6 50 μM, first Y6 series): 1.45; PV ([2]; R3 50 μM with R40 50 μM): 1.63; PV ([2]; R3 50 μM with Y6 50 μM, second Y6 series): 1.33; PV ([2]; R3 100 μM with R40 50 μM): 1.65; PV ([2]; R3 100 μM with Y6 50 μM, first Y6 series): 1.38; PV ([2]; R3 100 μM with Y6 50 μM, second Y6 series): 1.55; PV ([2]; R3 150 μM with Y6 50 μM, first Y6 series): 1.41; PV ([2]; R3 200 μM with R40 50 μM): 1.78; PV ([2]; R3 300 μM with R40 50 μM): 2.15; PV ([2]; R3 300 μM with Y6 50 μM, first Y6 series): 1.66; PV ([2]; R3 300 μM with Y6 50 μM, second Y6 series): 1.68; PV ([2]; R3 600 μM with Y6 50 μM, first Y6 series): 1.31; PV ([2]; R3 600 μM with Y6 50 μM, second Y6 series): 1.42; (local) maximum absorption wavelength, as believed [3]: about 530 nm
